The results in this text go back to patent US12187723B2 (BRISTOL-MYERS SQUIBB COMPANY, priority 2019, dated 2025).

The structures appear in SMILES notation.

Broadly, the IC50 is the point on the concentration scale where inhibition reaches its midpoint.

The target in this test is T1, human TLR7 (Homo sapiens, UniProt Q9NYK1).
T1 construct: host or cells: HEK-Blue cells
T1 sequence (Q9NYK1 27-1049): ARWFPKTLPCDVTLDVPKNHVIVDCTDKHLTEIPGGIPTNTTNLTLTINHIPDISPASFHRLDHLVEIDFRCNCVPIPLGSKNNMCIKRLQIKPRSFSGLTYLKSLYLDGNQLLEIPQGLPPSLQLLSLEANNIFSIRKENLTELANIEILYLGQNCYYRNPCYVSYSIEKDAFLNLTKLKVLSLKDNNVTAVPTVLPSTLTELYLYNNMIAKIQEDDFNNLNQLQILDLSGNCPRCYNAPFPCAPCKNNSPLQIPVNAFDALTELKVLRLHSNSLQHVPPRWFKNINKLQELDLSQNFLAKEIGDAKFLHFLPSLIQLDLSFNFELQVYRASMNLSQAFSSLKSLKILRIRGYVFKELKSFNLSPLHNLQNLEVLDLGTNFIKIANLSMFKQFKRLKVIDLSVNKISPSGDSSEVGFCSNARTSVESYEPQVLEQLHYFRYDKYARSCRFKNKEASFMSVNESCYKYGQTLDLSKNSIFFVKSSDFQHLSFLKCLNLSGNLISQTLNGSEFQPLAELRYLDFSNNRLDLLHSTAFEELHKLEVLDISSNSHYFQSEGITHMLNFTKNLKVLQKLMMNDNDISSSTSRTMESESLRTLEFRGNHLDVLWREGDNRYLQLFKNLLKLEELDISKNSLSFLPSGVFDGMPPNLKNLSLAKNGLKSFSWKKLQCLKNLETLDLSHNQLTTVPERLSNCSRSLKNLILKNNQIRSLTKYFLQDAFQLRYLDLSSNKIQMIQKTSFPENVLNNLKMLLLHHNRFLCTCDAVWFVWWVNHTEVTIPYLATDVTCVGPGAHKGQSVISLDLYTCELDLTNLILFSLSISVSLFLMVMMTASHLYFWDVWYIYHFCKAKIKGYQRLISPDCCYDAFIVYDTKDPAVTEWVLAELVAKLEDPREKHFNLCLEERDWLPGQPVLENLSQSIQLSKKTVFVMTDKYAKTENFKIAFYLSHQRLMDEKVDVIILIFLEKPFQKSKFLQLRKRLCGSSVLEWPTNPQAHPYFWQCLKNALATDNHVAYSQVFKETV
The test is described as follows: TLR7 inhibition reporter assay (HEK-Blue SEAP). The format is cell-based. The conditions noted are these: HEK-Blue cells overexpressing human TLR7, gardiquimod 7.5 μM, 22 hour incubation. Summed up: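 22 h, 37° C, 5% CO2 incubation; compounds 0.05 nM-50 μM final; TLR7 cells 15000/well, TLR8 20,000/well. Readout: SEAP via HEK-Blue Detection medium. % inhibition = signal reduction versus agonist + DMSO wells, referenced to known inhibitor.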
For orientation: In a reporter assay the amount or activity of a reporter protein is the signal.
Turning to `COc1cc(-c2cc3[nH]c(=O)n(C4CCN(C)CC4)c3cc2C)cn2ncnc12` [Example 1, 5-(8-methoxy-[1,2,4]triazolo[1,5-a]pyridin-6-yl)-6-methyl-1-(1-methylpiperidin-4-yl)-1,3-dihydro-2H-benzo[d]imidazol-2-one], half-maximal inhibition (IC50) was put at 37.9 nM.

Compound `CCN1CCC[C@@H](n2c(=O)[nH]c3cc(-c4cc(OC)c5ncnn5c4)c(C)cc32)C1` [Example 52, (R)-1-(1-ethylpiperidin-3-yl)-5-(8-methoxy-[1,2,4]triazolo[1,5-a]pyridin-6-yl)-6-methyl-1,3-dihydro-2H-benzo[d]imidazol-2-one] came in with an IC50 of 65.3 nM.

`CCCN1CCC[C@@H](n2c(=O)[nH]c3cc(-c4cc(C)c5ncnn5c4)c(C)cc32)C1` [Example 42, (R)-6-methyl-5-(8-methyl-[1,2,4]triazolo[1,5-a]pyridin-6-yl)-1-(1-propylpiperidin-3-yl)-1,3-dihydro-2H-benzo[d]imidazol-2-one] registered an IC50 of 26.3 nM.

`CCCN1CCC[C@@H](n2c(=O)[nH]c3cc(-c4cc(OC)c5ncnn5c4)c(C)cc32)C1` [Example 54, (R)-5-(8-methoxy-[1,2,4]triazolo[1,5-a]pyridin-6-yl)-6-methyl-1-(1-propylpiperidin-3-yl)-1,3-dihydro-2H-benzo[d]imidazol-2-one]: the IC50 is 29.2 nM.

In turn, `CCC(CC)CN1CCC[C@@H](n2c(=O)[nH]c3cc(-c4cc(OC)c5ncnn5c4)c(C)cc32)C1` [Example 73, (R)-1-(1-(2-ethylbutyl)piperidin-3-yl)-5-(8-methoxy-[1,2,4]triazolo[1,5-a]pyridin-6-yl)-6-methyl-1,3-dihydro-2H-benzo[d]imidazol-2-one] showed an IC50 of 32.4 nM. The IC50 values of the last two compounds are within 1.5-fold of each other.

In turn, `COc1cc(-c2ccc3c(c2)[nH]c(=O)n3C2CCN(CC3CCOCC3)CC2)cn2ncnc12` [Example 78, 5-(8-methoxy-[1,2,4]triazolo[1,5-a]pyridin-6-yl)-1-(1-((tetrahydro-2H-pyran-4-yl)methyl)piperidin-4-yl)-1,3-dihydro-2H-benzo[d]imidazol-2-one] had a concentration for half-maximal inhibition (IC50) of 1120 nM.
